SMILES strings stand for the structures.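 Following 48 hours of exposure in 96-well plates, responses at five concentrations were used to interpolate endpoints linearly. Abbreviation: GI50, concentration required for 50% inhibition of growth. TGI: concentration producing complete growth inhibition.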

Test systems include COLO 205 colon; SW-620 colon; M14 melanoma; MOLT-4 leukemia; HS 578T breast; IGROV1 ovarian; SF-295 CNS; OVCAR-8 ovarian; K-562 leukemia; SR leukemia.
What all share (experiment): NCI-60 cell line screen, 48 h

In the case of `FC(F)(F)c1cccc(-c2[nH]ncc2-c2nnnn2-c2ccccc2)c1`, the GI50 is 3.49 µM in the experiment on COLO 205 colon; 3.23 µM in the experiment on SW-620 colon; 3.21 µM in the experiment on M14 melanoma; 4.79 µM in the experiment with MOLT-4 leukemia; 4.85 µM with HS 578T breast; 3.96 µM in the experiment with IGROV1 ovarian. Besides, the GI50 with SF-295 CNS is 2.49 µM; in the experiment with OVCAR-8 ovarian, 7.77 µM; in the experiment on K-562 leukemia it was 3.3 µM; in the experiment on SR leukemia, 1.94 µM. Also, the TGI in the experiment on COLO 205 colon is 13 µM; with SW-620 colon, 12.2 µM; in the experiment on M14 melanoma it was 11.6 µM; in the experiment on MOLT-4 leukemia, 28.8 µM; in the experiment with HS 578T breast, 28.4 µM; in the experiment with IGROV1 ovarian, 15.4 µM. Also, the TGI in the experiment with SF-295 CNS is 9.04 µM; in the experiment with OVCAR-8 ovarian, 90.2 µM; in the experiment with K-562 leukemia, 15.8 µM; with SR leukemia, 5.42 µM.

`CC(C)(C)[Si](C)(C)OC1[C@@H](COC(=O)NC(=O)CCl)O[C@@H](n2cnc3c(N)ncnc32)[C@H]1O[Si](C)(C)C(C)(C)C` (some centres undefined): the GI50 is 1.9 µM with COLO 205 colon; 1.73 µM with SW-620 colon; 1.39 µM with M14 melanoma; 1.01 µM in the experiment on MOLT-4 leukemia; 7.62 µM with HS 578T breast; 0.783 µM with IGROV1 ovarian. For the same compound, the GI50 was 7.52 µM with SF-295 CNS, 1.42 µM with OVCAR-8 ovarian, 1.36 µM in the experiment with K-562 leukemia and 0.357 µM in the experiment with SR leukemia. Moreover, the TGI in the experiment on COLO 205 colon was found to be 4.79 µM; in the experiment with SW-620 colon it was 6.54 µM; in the experiment on M14 melanoma, 4.23 µM; in the experiment on MOLT-4 leukemia, 2.22 µM; with HS 578T breast it was 19.3 µM; in the experiment on IGROV1 ovarian it was 1.67 µM. Further, the TGI is 14.3 µM in the experiment with SF-295 CNS, 4.45 µM with OVCAR-8 ovarian, 3.36 µM with K-562 leukemia and 1.31 µM in the experiment with SR leukemia.

Turning to `CN(C)c1ccc2[nH]c3c(C(N)=O)cc(=O)c(=O)c=3oc2c1`, the GI50 in the experiment on COLO 205 colon is 3.5 µM; with SW-620 colon, 2.02 µM; in the experiment with M14 melanoma, 2.93 µM; in the experiment with MOLT-4 leukemia, 0.861 µM; in the experiment on HS 578T breast, 0.973 µM; in the experiment with IGROV1 ovarian, 1.95 µM. Further, the GI50 in the experiment with SF-295 CNS was 3.22 µM; in the experiment with OVCAR-8 ovarian, 1.05 µM; in the experiment with K-562 leukemia, 0.358 µM; in the experiment on SR leukemia, 0.942 µM. Besides, the TGI in the experiment on COLO 205 colon is greater than 100 µM; with SW-620 colon, greater than 100 µM; with M14 melanoma, greater than 100 µM; in the experiment with MOLT-4 leukemia, 8.53 µM; in the experiment with HS 578T breast, 8.31 µM; in the experiment on IGROV1 ovarian, 14.2 µM. The TGI is greater than 100 µM in the experiment on SF-295 CNS, greater than 100 µM in the experiment on OVCAR-8 ovarian, greater than 100 µM in the experiment on K-562 leukemia and 8.49 µM in the experiment on SR leukemia.

Turning to `COc1ccc2c(c1)C(=O)c1c-2n(CCCN(C)C)c(=O)c2cc([N+](=O)[O-])ccc12`, the GI50 in the experiment with COLO 205 colon was 0.0483 µM; in the experiment on SW-620 colon it was less than 0.01 µM; in the experiment on M14 melanoma, less than 0.01 µM; in the experiment on MOLT-4 leukemia, less than 0.01 µM; with HS 578T breast it was 3.04 µM; in the experiment with IGROV1 ovarian, less than 0.01 µM. Also, the GI50 in the experiment on SF-295 CNS was less than 0.01 µM; in the experiment on OVCAR-8 ovarian, less than 0.011 µM; with K-562 leukemia it was less than 0.01 µM; in the experiment with SR leukemia, less than 0.01 µM. Moreover, the TGI with COLO 205 colon is 12.9 µM; with SW-620 colon, 1.34 µM; in the experiment on M14 melanoma it was 0.0428 µM; in the experiment on MOLT-4 leukemia, 0.282 µM; in the experiment with HS 578T breast, 21.3 µM; in the experiment on IGROV1 ovarian, 13.6 µM. Further, the figures for the TGI with SF-295 CNS, in the experiment on OVCAR-8 ovarian and in the experiment on K-562 leukemia were less than 0.0188 µM, 3.75 µM and 2.29 µM, respectively.

Take `COc1ccc(-c2c(-c3ccc(C#N)c(F)c3)nc(N3CCC(N)CC3)n(C)c2=O)cc1F`: the GI50 is 13.3 µM with COLO 205 colon; 24.2 µM in the experiment with SW-620 colon; 17.5 µM in the experiment on M14 melanoma; 15.5 µM in the experiment on MOLT-4 leukemia; 13.2 µM in the experiment on HS 578T breast; 16.3 µM with IGROV1 ovarian. For the same compound, the GI50 in the experiment on SF-295 CNS was 15.4 µM; with OVCAR-8 ovarian, 33.6 µM; in the experiment with K-562 leukemia, 11.6 µM; in the experiment on SR leukemia, 12.2 µM. For the same compound, the TGI in the experiment with COLO 205 colon is 31.1 µM; in the experiment with SW-620 colon, 96.2 µM; with M14 melanoma, 34.9 µM; in the experiment with MOLT-4 leukemia, 46.2 µM; in the experiment with HS 578T breast, 44.6 µM; with IGROV1 ovarian, 41.8 µM. Further, the TGI in the experiment on SF-295 CNS was 31.9 µM; in the experiment with OVCAR-8 ovarian, greater than 100 µM; with K-562 leukemia, 28.5 µM; with SR leukemia, 34.6 µM.

As to `COc1ccc(C(O)c2ccccn2)cc1` (centres undefined), the TGI in the experiment with COLO 205 colon, with SW-620 colon, with M14 melanoma, in the experiment with MOLT-4 leukemia, with HS 578T breast and with IGROV1 ovarian was greater than 100 µM in each case. Besides, the TGI with SF-295 CNS, with OVCAR-8 ovarian, in the experiment on K-562 leukemia and in the experiment with SR leukemia was greater than 100 µM each time.

Regarding `Oc1[nH]c2ccccc2c1C=Nc1ccc(-n2cncn2)cc1`, the GI50 in the experiment with COLO 205 colon was greater than 25 µM; in the experiment on SW-620 colon, greater than 25 µM; with M14 melanoma, greater than 25 µM; with MOLT-4 leukemia, 20.4 µM; in the experiment on HS 578T breast it was greater than 25 µM; in the experiment with IGROV1 ovarian, greater than 25 µM. The GI50 in the experiment with SF-295 CNS is greater than 25 µM; in the experiment with OVCAR-8 ovarian it was 13.9 µM; in the experiment on K-562 leukemia, 13.6 µM; with SR leukemia it was 19 µM. Moreover, the TGI in the experiment with COLO 205 colon, in the experiment with SW-620 colon, in the experiment with M14 melanoma, in the experiment on MOLT-4 leukemia, in the experiment on HS 578T breast and in the experiment with IGROV1 ovarian was greater than 25 µM throughout. Moreover, the TGI in the experiment on SF-295 CNS, in the experiment on OVCAR-8 ovarian, in the experiment with K-562 leukemia and in the experiment on SR leukemia was greater than 25 µM in each case.

With `COc1ccc2c(c1)-c1c(c3cc(OC)ccc3n(CCN(C)C)c1=O)C2=O`, the GI50 was 0.461 µM with COLO 205 colon; 0.208 µM in the experiment on SW-620 colon; 1.8 µM in the experiment with M14 melanoma; 0.174 µM in the experiment on MOLT-4 leukemia; 1.7 µM with HS 578T breast; 0.243 µM in the experiment with IGROV1 ovarian. Further, the GI50 is 0.714 µM in the experiment on SF-295 CNS, 0.31 µM with OVCAR-8 ovarian, 0.28 µM in the experiment on K-562 leukemia and 0.592 µM with SR leukemia. For the same compound, the TGI came out at 4.7 µM in the experiment on COLO 205 colon; 2.95 µM in the experiment with SW-620 colon; 10.2 µM in the experiment on M14 melanoma; 0.953 µM in the experiment with MOLT-4 leukemia; 7.81 µM with HS 578T breast; 2.31 µM with IGROV1 ovarian. Also, the TGI with SF-295 CNS amounted to 2.99 µM; in the experiment with OVCAR-8 ovarian it was 5.59 µM; in the experiment on K-562 leukemia it was 3.09 µM; in the experiment with SR leukemia, 2.64 µM.
